Experimental data reported in patent US20060105329A1, “Gene panel participating in liver regeneration” (priority 2001, published 2006).
Where “and” joins values, the source holds several entries; their conditions need not be identical. Equal entries are not always repeated.

Experiments:
liver regeneration = conditions: Maezono K et al., Hepatology 24(5), 1996; JP 5-229940; cited from earlier work
[1] = tested on: liver proliferating cell nucleus antigen (PCNA); assay: PCNA labeling index in liver of partially hepatectomized rats administered L-alanine; type: in vivo, rat
Description: (§1) L-alanine is known to have effect of accelerating liver regeneration (Maezono K et al., Hepatology 24(5), 1996, Effect of Alanine on D-Galactosamine-Induced Acute Liver Failure in Rats; Japanese Patent Laid-open Publication No. 5-229940). Therefore, rats were subjected to partial hepatectomy and orally administered with L-alanine at 18 and 21 hours after the hepatectomy, and then gene expressions at 24 hours after the hepatectomy were examined.
(§2) Five 6 week-old F344 male rats (120 g) were preliminarily fed for 6 days by giving feed CRF-1 (Oriental Yeast) and water and then divided into 2 groups (Group 1 and Group 2) each consisting of rats with the same body weight. At 24 hours before dissection, 70% partial hepatectomy was performed by the method by Higgins-Anderson (Higgins, G M and Anderson, R M, Arch. Pathol. 12, 186-191, 1931). On the day of autopsy, the rats were starved for 6 hours before dissection. At 6 and 3 hours before dissection, 2 g/10 ml/kg of L-alanine was orally administered as an aqueous solution containing 0.3% aqueous carboxymethylcellulose (CMC).
After the rats were killed by bleeding under anesthesia, the dissection was performed. Liver was extracted, weighed, cryopreserved, and then subjected to the mRNA expression measurement by the ATAC-PCR method. Further, liver samples were prepared to measure the liver proliferating cell nucleus antigen (PCNA) levels.
Further, the livers of rats administered with L-alanine were stained by using anti-PCNA antibodies (antibodies directed to proliferating cell nuclear antigen (PCNA), a replication factor that accelerates activity of DNA polymerase ä), and the PCNA labeling index was measured by the method of Tanaka et al. (Tanaka et al., Byori to Rinsho, 9 (6): 791-798, 1991).
Due to the L-alanine administration, the PCNA labeling index in the livers elevated as compared with the livers of the non-administered rats (Table 2). In Table 2, Ala+represents the L-alanine-administered group, and Ala-represents the L-alanine non-administered group. Thus, hepatocytes proliferation accelerating effect due to the L-alanine administration was observed.

[2] = tested on: high mobility group protein 2; assay: ATAC-PCR gene expression in liver of partially hepatectomized rats administered L-alanine, gene No. 17; type: in vivo, rat
Description: as §1
as §2, with “At 6 and 3 hours before dissection, 2 g/10 ml/kg of L-alanine was orally administered as an aqueous solution containing 0.3% aqueous carboxymethylcellulose (CMC).” left out
(§3) Gene expressions in rat liver in each group were measured by ATAC-PCR. […] In ATAC-PCR, among the genes in the gene panel, 117 types of which expression could be measured by ATAC-PCR using the restriction enzyme MboI were measured (those except for Nos. 12, 49, 52, 55, 58, 59, 61, 69, 73, 77, 83, 90, 93, 101, 102, 108, 130, 134, 135 and 136 mentioned in Table 1).
(§4) Further, the gene expressions in Groups 1 and 2 were measured by ATAC-PCR for the genes of the gene panel and compared. […]

[3] = tested on: gene No. 117 in the gene panel; assay: ATAC-PCR gene expression in liver of partially hepatectomized rats administered L-alanine, gene No. 117; type: in vivo, rat
Description: as §1
as §2, with “At 6 and 3 hours before dissection, 2 g/10 ml/kg of L-alanine was orally administered as an aqueous solution containing 0.3% aqueous carboxymethylcellulose (CMC).” left out
as §3, §4

[4] = tested on: rat genes involved in L-alanine metabolism; assay: Expression analysis of genes involved in L-alanine metabolism by Taqman PCR (SYBR Green) with L-alanine administration during liver regeneration; type: in vivo; conditions: L-alanine 2 g/10 ml/kg BW orally 18 and 21 hr after 70% partial hepatectomy vs 0.3% CMC control, liver at 24 hr, values only in FIGS. 2 to 4
Description: Expression changes were examined with L-alanine administration during liver regeneration regarding 59 types of rat genes involved in L-alanine metabolism extracted in Example 2.
Five 6 week-old F344 male rats (120 g) were fed for 6 days by giving feed CRF-1 (Oriental Yeast) and water and then divided into 2 groups (Group 1 and Group 2) each consisting of rats with the same body weight. At 24 hours before dissection, 70% partial hepatectomy (left lobe and intermediate lobe) was performed by the method of Higgins-Anderson (Higgins, G M and Anderson, R M, Arch. Pathol. 12, 186-191, 1931). On the day of autopsy, the rats were starved for 6 hours before the dissection. At 18 and 21 hours after the partial hepatectomy, 2 g/10 ml/kg BW of L-alanine was orally administered as an aqueous solution containing 0.3% carboxymethylcellulose (Group 1), and only 0.3% carboxymethylcellulose was orally administered as a control (Group 2).
Dissection was performed at 24 hours after the partial hepatectomy. After the rats were killed by bleeding under anesthesia, livers were extracted, weighed, cryopreserved and then subjected to the mRNA expression measurement by the Taqman PCR (SYBR Green) method. […]
All the Taqman PCR (SYBR Green) reactions were performed in duplicate, and the cycle threshold (CT) was calculated. […]

deoxy-UTPase (dUTPase) = assay: ATAC-PCR gene expression in liver of partially hepatectomized rats administered L-alanine, gene No. 68; type: in vivo, rat
Description: as §1
as §2, with “At 6 and 3 hours before dissection, 2 g/10 ml/kg of L-alanine was orally administered as an aqueous solution containing 0.3% aqueous carboxymethylcellulose (CMC).” left out
as §3, §4

nuclear RNA helicase = assay: ATAC-PCR gene expression in liver of partially hepatectomized rats administered L-alanine, gene No. 36; type: in vivo, rat
Description: as §1
as §2, with “At 6 and 3 hours before dissection, 2 g/10 ml/kg of L-alanine was orally administered as an aqueous solution containing 0.3% aqueous carboxymethylcellulose (CMC).” left out
as §3, §4

[5] = tested on: leukemia-associated cytosolic phosphoprotein stathmin; assay: ATAC-PCR gene expression in liver of partially hepatectomized rats administered L-alanine, gene No. 67; type: in vivo, rat
Description: as §1
as §2, with “At 6 and 3 hours before dissection, 2 g/10 ml/kg of L-alanine was orally administered as an aqueous solution containing 0.3% aqueous carboxymethylcellulose (CMC).” left out
as §3, §4

[6] = tested on: amino acid transporter system A (ATA2); assay: ATAC-PCR gene expression in liver of partially hepatectomized rats administered L-alanine, gene No. 5; type: in vivo, rat
Description: as §1
as §2, with “At 6 and 3 hours before dissection, 2 g/10 ml/kg of L-alanine was orally administered as an aqueous solution containing 0.3% aqueous carboxymethylcellulose (CMC).” left out
as §3, §4

[7] = tested on: liver nuclear protein p47; assay: ATAC-PCR gene expression in liver of partially hepatectomized rats administered L-alanine, gene No. 46; type: in vivo, rat
Description: as §1
as §2, with “At 6 and 3 hours before dissection, 2 g/10 ml/kg of L-alanine was orally administered as an aqueous solution containing 0.3% aqueous carboxymethylcellulose (CMC).” left out
as §3, §4

ATA2 = biological target: T1, ATA2 (Rattus norvegicus, UniProt Q9JHE5); conditions: Ala transport activity of ATA2 inhibited by treatment with MeAIB; Freeman T L et al., Hepatology 1999; cited from earlier work
T1 sequence (Q9JHE5 1-504): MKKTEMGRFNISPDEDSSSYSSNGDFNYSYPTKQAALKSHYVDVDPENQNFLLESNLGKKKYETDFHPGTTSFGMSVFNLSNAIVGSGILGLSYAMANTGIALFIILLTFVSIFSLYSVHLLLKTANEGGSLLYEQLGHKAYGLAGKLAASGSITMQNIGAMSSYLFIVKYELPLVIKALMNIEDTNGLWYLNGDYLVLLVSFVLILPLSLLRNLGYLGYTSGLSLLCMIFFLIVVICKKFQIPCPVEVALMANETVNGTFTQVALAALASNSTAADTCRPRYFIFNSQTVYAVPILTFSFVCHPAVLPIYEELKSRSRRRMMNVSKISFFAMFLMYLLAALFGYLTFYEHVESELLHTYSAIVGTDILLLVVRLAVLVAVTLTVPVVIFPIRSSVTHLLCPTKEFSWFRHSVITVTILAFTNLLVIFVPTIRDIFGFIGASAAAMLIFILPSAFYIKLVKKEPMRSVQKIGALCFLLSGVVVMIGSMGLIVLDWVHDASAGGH

[8] = individual rats 2-1, 2-2 (Group 2, taken as Ala+), L-alanine 2 g/10 ml/kg orally 18 and 21 hr after 70% partial hepatectomy, liver at 24 hr
[9] = ATAC-PCR, liver 24 hr after hepatectomy, L-alanine-administered vs non-administered group
[10] = liver 24 hr after hepatectomy with L-alanine, ratio to gene panel expression at 0 hour

C[C@H](N)C(=O)O [L-alanine]
effect on liver regeneration (liver regeneration): accelerate liver regeneration | PCNA labeling index in the livers as compared with non-administered rats ([1]; L-alanine orally 18 and 21 hr after partial hepatectomy, liver at 24 hr): elevated | PCNA Labeling Index (%), Mean ([1]; group mean of rats 2-1, 2-2 (taken as Ala+), non-administered group mean 0.6%, liver 24 hr after hepatectomy): 64.7% | PCNA Labeling Index (%) [1, 8]: 65.5% and 64.0% | PCNA Negative cells [1, 8]: 247 and 240 | PCNA positive cells [1, 8]: 468 and 426 | Ala+, 24 hr/Ala-, 24 hr expression ratio, gene No. 17 [2, 9]: 5.5 | Ala+ 24 hr relative expression value based on expression before hepatectomy, gene No. 17 [2, 10]: 228.3 | Ala+, 24 hr/Ala-, 24 hr expression ratio, gene No. 117 [3, 9]: 3.2 | Ala+ 24 hr relative expression value based on expression before hepatectomy, gene No. 117 [3, 10]: 0.6 | Expression level of genes involved in L-alanine metabolism (genes of Table 7 and Nos. 139, 140, 151) [4]: changes in expression level due to the L-alanine administration were observed | Ala+, 24 hr/Ala-, 24 hr expression ratio, gene No. 68 (deoxy-UTPase (dUTPase); [9]): 3.5 | Ala+ 24 hr relative expression value based on expression before hepatectomy, gene No. 68 (deoxy-UTPase (dUTPase); [10]): 24.9 | Ala+, 24 hr/Ala-, 24 hr expression ratio, gene No. 36 (nuclear RNA helicase; [9]): 4.6 | Ala+ 24 hr relative expression value based on expression before hepatectomy, gene No. 36 (nuclear RNA helicase; [10]): 25.8 | Ala+, 24 hr/Ala-, 24 hr expression ratio, gene No. 67 [5, 9]: 4.2 | Ala+ 24 hr relative expression value based on expression before hepatectomy, gene No. 67 [5, 10]: 25.6 | Ala+, 24 hr/Ala-, 24 hr expression ratio, gene No. 5 ([6]; 24 h): 4.8 | Ala+ 24 hr relative expression value based on expression before hepatectomy, gene No. 5 [6, 10]: 4.8 | Ala+, 24 hr/Ala-, 24 hr expression ratio, gene No. 46 [7, 9]: 4.4 | Ala+ 24 hr relative expression value based on expression before hepatectomy, gene No. 46 [7, 10]: 11.4

CNC(C)(C)C(=O)O [MeAIB, alpha-(methylamino)isobutyric acid]
uptake of [3H]thymidine into DNA (ATA2): decreased
